Patent publication EP4570245A1, “COMBINED AGENTS WITH SYNERGISTIC EFFECT AGAINST GLIOMAS” (Eberhard Karls Universität Tübingen Medizinische Fakultät, priority 2023, dated 2025)

Assays:
[1] = target: T1, RMI (RecQ-mediated genome instability protein) core complex/MM2 interaction (Homo sapiens, UniProt Q96E14+Q9H9A7); conditions: inhibitor of RMI core complex/MM2 interaction; MM2 is the binding site of RMI complex on FANCM; cited from earlier work
T1 sequence (Q9H9A7 473-625 limits assumed): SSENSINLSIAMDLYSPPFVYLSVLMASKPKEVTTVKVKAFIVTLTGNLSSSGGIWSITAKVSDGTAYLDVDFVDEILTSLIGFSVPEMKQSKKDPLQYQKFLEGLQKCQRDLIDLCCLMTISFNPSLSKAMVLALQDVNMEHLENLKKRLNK
T1 sequence (Q96E14 1-147): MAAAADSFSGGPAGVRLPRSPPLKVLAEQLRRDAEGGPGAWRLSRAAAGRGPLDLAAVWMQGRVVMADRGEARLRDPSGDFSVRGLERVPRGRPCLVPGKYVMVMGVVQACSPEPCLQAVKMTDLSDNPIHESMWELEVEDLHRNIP

[2] = tested on: LN18 and T98G glioma cell lines; test: Clonogenic survival assay of shRNA knockdown cells under CCNU treatment; type: cell-based
Procedure: The inventors seeded the cells one day prior to treatment. The inventors then treated the cells with the specified concentrations in serum-free medium for 24 hours. Afterward, they changed the medium back to one containing FCS and incubated the cells for a period ranging from 14 to 21 days. The inventors stained the colonies using 0.5% w/v crystal violet and counted them. Measurements were normalized to the respective vehicle control wells.
Based on the CRISPR/Cas9 screen result a loss of the Fanconi anemia DNA repair pathway should increase the effect of CCNU treatment. Therefore, the inventors induced an shRNA knockdown in LN18 and T98G glioma cell lines for FANCA or FANCD2. These knockdown cell lines were treated in clonogenic survival assays with CCNU in comparison to a control cell line transduced with a vector coding for an shRNA against Luciferase (Figure 2).

Row | Structure (SMILES) | IC50 [1] | sensitivity to CCNU treatment ([2]; FANCA shRNA knockdown cell lines compared to the luciferase shRNA control) | sensitivity to CCNU treatment ([2]; FANCD2 shRNA knockdown cell lines compared to the luciferase shRNA control)
1 | CCOC(=O)N1CCN(C(c2ccccn2)c2c(-c3ccccc3)n(O)c3ccccc23)CC1 (stereo not drawn) [PIP-199] | 36 µM | – | –
2 | O=NN(CCCl)C(=O)NC1CCCCC1 [CCNU, lomustine] | – | more sensitive | more sensitive
